# Assay results published in ChEMBL document CHEMBL1140111, “Potent, orally bioavailable delta opioid receptor agonists for the treatment of pain: discovery of N,N-diethyl-4-(5-hydroxyspiro[chromene-2,4'-piperidine]-4-yl)benzamide (ADL5859)” (J Med Chem, 2008).
# Active and inactive are the calls of the source. The calls are words filed in the database; no cut-off is given here.
# Assays:
# [1] = target: T1, Kappa-type opioid receptor (Homo sapiens, UniProt P41145); assay: Displacement of [3H]diprenorphine from human kappa opioid receptor in CHO cells at 10 uM; assay type: cell-based
# T1 sequence (P41145 whole entry): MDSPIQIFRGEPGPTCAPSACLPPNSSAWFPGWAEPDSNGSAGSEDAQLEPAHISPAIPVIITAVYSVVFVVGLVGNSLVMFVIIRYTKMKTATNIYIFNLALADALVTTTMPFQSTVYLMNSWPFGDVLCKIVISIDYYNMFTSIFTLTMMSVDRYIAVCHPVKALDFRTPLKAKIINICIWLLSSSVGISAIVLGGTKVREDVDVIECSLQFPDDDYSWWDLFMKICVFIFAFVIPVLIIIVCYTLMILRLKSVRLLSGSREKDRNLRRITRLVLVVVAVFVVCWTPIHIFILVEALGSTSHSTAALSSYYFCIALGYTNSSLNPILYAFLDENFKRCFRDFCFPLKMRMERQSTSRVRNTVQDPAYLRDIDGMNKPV
# [2] = target: T2, Mu-type opioid receptor (Homo sapiens, UniProt P35372); assay: Displacement of [3H]diprenorphine from human mu opioid receptor in CHO cells at 10 uM; assay type: cell-based
# T2 sequence (P35372 whole entry): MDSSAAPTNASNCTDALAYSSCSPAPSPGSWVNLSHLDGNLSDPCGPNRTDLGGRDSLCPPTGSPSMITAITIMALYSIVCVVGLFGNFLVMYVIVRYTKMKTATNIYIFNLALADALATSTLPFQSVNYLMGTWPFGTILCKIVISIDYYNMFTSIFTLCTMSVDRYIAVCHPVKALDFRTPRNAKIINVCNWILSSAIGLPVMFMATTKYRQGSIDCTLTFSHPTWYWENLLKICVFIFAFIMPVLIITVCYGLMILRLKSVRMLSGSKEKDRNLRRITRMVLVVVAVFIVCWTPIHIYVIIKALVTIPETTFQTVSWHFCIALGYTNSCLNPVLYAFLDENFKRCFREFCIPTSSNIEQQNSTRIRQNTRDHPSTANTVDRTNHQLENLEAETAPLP
# [3] = target: T3, Delta-type opioid receptor (Homo sapiens, UniProt P41143); assay: biochemical
# T3 sequence (P41143 whole entry): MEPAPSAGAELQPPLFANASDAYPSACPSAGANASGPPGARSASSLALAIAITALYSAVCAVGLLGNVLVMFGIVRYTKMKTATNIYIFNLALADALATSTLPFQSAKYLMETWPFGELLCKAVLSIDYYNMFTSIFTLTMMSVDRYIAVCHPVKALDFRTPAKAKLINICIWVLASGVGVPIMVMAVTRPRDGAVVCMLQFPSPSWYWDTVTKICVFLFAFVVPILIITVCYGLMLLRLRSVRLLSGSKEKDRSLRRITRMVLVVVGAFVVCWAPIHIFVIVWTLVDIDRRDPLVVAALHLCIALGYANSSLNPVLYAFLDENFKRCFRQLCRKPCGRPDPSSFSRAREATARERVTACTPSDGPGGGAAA
# Description: Displacement of [3H]diprenorphine from human delta opioid receptor in CHO cells
# [4] = target: T1, Kappa-type opioid receptor; assay: Displacement of [3H]diprenorphine from human kappa opioid receptor in CHO cells; assay type: cell-based
# [5] = target: Voltage-gated inwardly rectifying potassium channel KCNH2 (Homo sapiens, UniProt Q12809)
# Chain of Voltage-gated inwardly rectifying potassium channel KCNH2 (Q12809 whole entry): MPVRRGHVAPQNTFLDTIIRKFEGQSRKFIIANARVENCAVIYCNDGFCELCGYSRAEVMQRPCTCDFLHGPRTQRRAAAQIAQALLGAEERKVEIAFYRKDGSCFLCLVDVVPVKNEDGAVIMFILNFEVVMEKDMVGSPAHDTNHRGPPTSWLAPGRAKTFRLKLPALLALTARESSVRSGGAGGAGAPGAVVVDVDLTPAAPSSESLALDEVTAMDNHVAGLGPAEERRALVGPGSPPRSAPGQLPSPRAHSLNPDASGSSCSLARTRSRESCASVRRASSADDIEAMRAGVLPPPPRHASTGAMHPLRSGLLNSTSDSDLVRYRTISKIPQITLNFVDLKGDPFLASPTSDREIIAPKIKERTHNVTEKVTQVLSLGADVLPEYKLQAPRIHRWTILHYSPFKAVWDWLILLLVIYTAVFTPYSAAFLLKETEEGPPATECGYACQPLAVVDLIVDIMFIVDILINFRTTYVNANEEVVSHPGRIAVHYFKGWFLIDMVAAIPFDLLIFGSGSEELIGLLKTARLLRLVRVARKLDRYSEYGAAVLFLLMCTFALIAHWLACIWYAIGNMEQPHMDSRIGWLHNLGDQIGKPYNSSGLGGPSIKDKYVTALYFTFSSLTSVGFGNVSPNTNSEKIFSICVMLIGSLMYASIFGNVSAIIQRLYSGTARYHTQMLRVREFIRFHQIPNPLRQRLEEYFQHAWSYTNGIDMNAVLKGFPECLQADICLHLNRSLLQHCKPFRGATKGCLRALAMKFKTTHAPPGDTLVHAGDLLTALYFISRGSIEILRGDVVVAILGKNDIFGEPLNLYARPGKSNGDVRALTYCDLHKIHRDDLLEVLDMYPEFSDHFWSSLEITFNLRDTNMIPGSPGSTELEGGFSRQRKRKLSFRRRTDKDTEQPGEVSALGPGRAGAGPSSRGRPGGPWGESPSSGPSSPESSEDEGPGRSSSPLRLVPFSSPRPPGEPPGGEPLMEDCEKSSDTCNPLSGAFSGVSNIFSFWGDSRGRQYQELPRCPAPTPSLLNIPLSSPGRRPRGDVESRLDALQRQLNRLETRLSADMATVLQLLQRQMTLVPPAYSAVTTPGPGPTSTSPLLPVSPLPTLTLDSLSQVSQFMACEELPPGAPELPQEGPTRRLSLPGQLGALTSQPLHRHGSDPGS
# Description: Inhibition of human ERG channel in HEK293 cells by voltage-clamp method
# [6] = target: T3, Delta-type opioid receptor
# Description: Agonist activity at human delta opioid receptor in CHO cells assessed as stimulation of [35S]GTPgammaS binding
# [7] = target: T2, Mu-type opioid receptor; assay: Displacement of [3H]diprenorphine from human mu opioid receptor in CHO cells; assay type: cell-based
# [8] = tested on: Rattus norvegicus; assay: Antihyperalgesic effect in rat assessed as reversal of Freund's complete adjuvant-induced paw pressure at 3 mg/kg, po; assay type: functional
# [9] = tested on: Rattus norvegicus; assay: Antidepressant activity in Sprague-Dawley rat assessed as increase in time spent swimming at 3 mg/kg, po by forced swim test; assay type: functional, organism-based; parameters: dose 3 mg/kg
# [10] = tested on: Liver microsomes; assay: Metabolic stability in human liver microsomes; assay type: ADME, Microsome
# [11] = Fraction unbound in rat plasma protein at 2 uM; assay type: ADME, cell-free; settings: read-out: PPB
# [12] = species: Rattus norvegicus; assay: Antihyperalgesic effect in rat assessed as reversal of Freund's complete adjuvant-induced paw pressure; assay type: functional
# [13] = tested on: Rattus norvegicus; assay: Convulsion activity in rat upto 1000 mg/kg, po; assay type: functional, organism-based; parameters: dose 1000 mg/kg
# [14] = Oral bioavailability in rat at 3 mg/kg; assay type: ADME, organism-based; settings: in vivo
# [15] = Volume of distribution at steady state in rat at 0.25 mg/kg, iv and 3.0 mg/kg, po; assay type: ADME, organism-based; settings: in vivo, read-out: Vdss
# [16] = tested on: Rattus norvegicus; assay: Antidepressant activity in Sprague-Dawley rat assessed as decrease in immobility time at 3 mg/kg, po by forced swim test; assay type: functional, organism-based; parameters: dose 3 mg/kg
# [17] = tested on: Mus musculus; assay: Increase in stereotypic behavior in mouse upto 1000 mg/kg, po; assay type: functional, organism-based; parameters: dose 1000 mg/kg
# [18] = Clearance in rat at 0.25 mg/kg, iv and 3.0 mg/kg, po; assay type: ADME, organism-based; settings: in vivo
# [19] = Fraction unbound in dog plasma at 2 uM; assay type: ADME, cell-free, Canis lupus familiaris; settings: read-out: PPB
# [20] = species: Rattus norvegicus; assay: Antihyperalgesic effect in rat assessed as reversal of Freund's complete adjuvant-induced paw pressure after 30 mins; assay type: functional, organism-based
# [21] = species: Rattus norvegicus; assay: Antihyperalgesic effect in rat assessed as reversal of Freund's complete adjuvant-induced paw pressure after 60 mins; assay type: functional, organism-based
# [22] = Fraction unbound in human plasma at 2 uM; assay type: ADME, cell-free; settings: read-out: PPB
# [23] = tested on: Rattus norvegicus; assay: Antihyperalgesic effect in rat assessed as reversal of Freund's complete adjuvant-induced paw pressure at 3 mg/kg, po in presence of naltrindole; assay type: functional, organism-based; parameters: dose 3 mg/kg
# [24] = Cmax in rat at 0.25 mg/kg, iv and 3.0 mg/kg, po; assay type: ADME, organism-based; settings: in vivo
# [25] = tested on: Rattus norvegicus; assay: Increase in locomotory activity in rat upto 1000 mg/kg, po; assay type: functional, organism-based; parameters: dose 1000 mg/kg
# [26] = Metabolic stability in dog liver microsomes after 30 mins; assay type: ADME, Canis lupus familiaris, Microsome; settings: read-out: Stability
# [27] = tested on: Rattus norvegicus; assay: Toxicity in rat assessed as EEG disturbances at 10 mg/kg and 30 mg/kg, po; assay type: organism-based; settings: in vivo
# [28] = Cmax in dog at 1 mg/kg, iv and 3.0 mg/kg, po; assay type: ADME, organism-based, Canis lupus familiaris; settings: in vivo
# [29] = tested on: Liver microsomes; assay: Metabolic stability in rat liver microsomes; assay type: ADME, Microsome
# [30] = Oral bioavailability in dog at 3 mg/kg; assay type: ADME, organism-based, Canis lupus familiaris; settings: in vivo
# [31] = tested on: Rattus norvegicus; assay: Antidepressant activity in Sprague-Dawley rat assessed as increase in time spent swimming at 3 mg/kg, po in presence of naltrindole by forced swim test; assay type: functional, organism-based; parameters: dose 3 mg/kg
# [32] = Clearance in dog at 1 mg/kg, iv and 3.0 mg/kg, po; assay type: ADME, organism-based, Canis lupus familiaris; settings: in vivo
# [33] = tested on: Rattus norvegicus; assay: Increase in stereotypic behavior in rat upto 1000 mg/kg, po; assay type: functional, organism-based; parameters: dose 1000 mg/kg
# [34] = tested on: Mus musculus; assay: Increase in locomotory activity in mouse upto 1000 mg/kg, po; assay type: functional, organism-based; parameters: dose 1000 mg/kg
# [35] = Volume of distribution at steady state in dog at 1 mg/kg, iv and 3.0 mg/kg, po; assay type: ADME, organism-based, Canis lupus familiaris; settings: in vivo, read-out: Vdss
# [36] = Half life in dog at 3.0 mg/kg, po; assay type: ADME, organism-based, Canis lupus familiaris; parameters: dose 3 mg/kg, route oral; settings: in vivo
# [37] = tested on: Mus musculus; assay: Convulsion activity in mouse upto 1000 mg/kg, po; assay type: functional, organism-based; parameters: dose 1000 mg/kg
# [38] = Half life in rat at 3.0 mg/kg, po; assay type: ADME, organism-based; parameters: dose 3 mg/kg, route oral; settings: in vivo
structure (smiles),measurement,setting,value
CCN1CCC2(C=C(c3ccc(C(=O)N(CC)CC)cc3)c3ccccc3O2)CC1,inhibition,[1],13%
same,inhibition,[2],13%
FC(F)(F)c1ccc(C2=CC3(CCNCC3)Oc3ccccc32)cc1,Ki,[3],150 nM
same,inhibition,[2],42%
same,Ki,[4],2000 nM
CCN(CC)C(=O)c1ccc(C2=CC3(CCN(C(C)=O)CC3)Oc3ccccc32)cc1,inhibition,[1],2%
same,Ki,[3],1300 nM
same,IC50,[5],47400 nM
same,inhibition,[2],14%
Cc1ccc(C2=CC3(CCNCC3)Oc3ccccc32)cc1,inhibition,[1],57%
same,inhibition,[2],49%
N#Cc1ccc(C2=CC3(CCNCC3)Oc3ccccc32)cc1,inhibition,[1],63%
same,Ki,[3],18 nM
same,inhibition,[2],60%
same,EC50,[6],200 nM
c1ccc(C2CC3(CCNCC3)Oc3ccccc32)cc1 (stereo not given),Ki,[3],160 nM
CCN(CC)C(=O)c1ccc(C2=CC3(CCNCC3)Oc3cc(O)ccc32)cc1,inhibition,[1],39%
same,inhibition,[2],35%
COc1ccc(C2=CC3(CCNCC3)Oc3ccccc32)cc1,inhibition,[1],42%
same,inhibition,[2],42%
C=CCN1C[C@H](C)N([C@H](c2ccc(C(=O)N(CC)CC)cc2)c2cccc(O)c2)C[C@H]1C,Ki,[1],130 nM
same,Ki,[3],0.32 nM
same,Ki,[7],260 nM
same,Ki,[4],3400 nM
same,EC50,[6],0.4 nM
CCN(CC)C(=O)c1ccc(C2=CC3(CCNCC3)Oc3ccc(O)cc32)cc1,Ki,[3],0.43 nM
same,IC50,[5],19800 nM
same,inhibition,[2],36%
same,Ki,[4],830 nM
same,EC50,[6],1.4 nM
same,Activity,[8],35%
COC(=O)c1ccc(C2=CC3(CCNCC3)Oc3ccccc32)cc1,inhibition,[2],54%
same,Ki,[4],520 nM
CCN(CC)C(=O)c1cccc(C2=CC3(CCNCC3)Oc3ccccc32)c1,inhibition,[1],10%
same,Ki,[3],330 nM
same,inhibition,[2],12%
O=S(=O)(Cc1ccc(Cl)cc1)N1CCC2(CC1)CC(c1ccccc1)c1ccccc1O2 (stereo not given),Ki,[3],500 nM
CCN(CC)C(=O)c1ccccc1C1=CC2(CCNCC2)Oc2ccccc21,inhibition,[1],45%
same,inhibition,[2],12%
CCN(CC)C(=O)c1ccc(C2=CC3(CCNCC3)Oc3c(O)cccc32)cc1,inhibition,[1],28%
same,Ki,[3],360 nM
same,inhibition,[2],4%
C=CCN1C[C@H](C)N([C@H](c2ccc(C(=O)N(CC)CC)cc2)c2cccc(OC)c2)C[C@H]1C,inhibition,[1],28%
same,inhibition,[2],25%
Oc1ccc(C2=CC3(CCNCC3)Oc3ccccc32)cc1,inhibition,[1],58%
same,Ki,[3],59 nM
same,IC50,[5],643 nM
same,inhibition,[2],54%
same,EC50,[6],220 nM
CCN(CC)C(=O)c1ccc(C2=CC3(CCNCC3)Oc3cccc(O)c32)cc1 [ADL-5859],inhibition,[1],37%
same,Activity,[9],Active
same,Stability,[10],64.9%
same,fraction unbound at 2 µM,[11],0.159
same,ED50,[12],1.4 mg/kg
same,Activity,[13],Non-toxic
same,bioavailability,[14],33.4%
same,Ki,[3],0.84 nM
same,Vd,[15],10.7 L/kg
same,IC50,[5],78000 nM
same,Activity,[16],Active
same,Activity,[17],Non-toxic
same,clearance,[18],30 mL/min/kg
same,fraction unbound at 2 µM,[19],0.152
same,Activity,[20],Active
same,inhibition,[2],32%
same,Activity,[21],Active
same,fraction unbound at 2 µM,[22],0.419
same,Activity,[23],inactive
same,Cmax,[24],117 nM
same,Activity,[25],Non-toxic
same,remaining at 0.5 h,[26],98.7%
same,Activity,[27],Non-toxic
same,Cmax,[28],1730 nM
same,Stability,[29],69.2%
same,bioavailability,[30],66.5%
same,Activity,[31],inactive
same,clearance,[32],6.67 mL/min/kg
same,Activity,[33],Non-toxic
same,Activity,[34],Non-toxic
same,Vd,[35],2.5 L/kg
same,half-life,[36],4.7 h
same,Activity,[37],Non-toxic
same,half-life,[38],5.3 h
same,EC50,[6],20 nM
same,Activity,[8],100%
O=C(O)c1ccc(C2=CC3(CCNCC3)Oc3ccccc32)cc1,inhibition,[1],14%
same,Ki,[3],11 nM
same,inhibition,[2],13%
same,EC50,[6],220 nM
CCN(CC)C(=O)c1ccc(C2=CC3(CCN(C)CC3)Oc3ccccc32)cc1,inhibition,[1],24%
same,Ki,[3],3.5 nM
same,inhibition,[2],12%
same,EC50,[6],89 nM
C1=C(c2ccccc2)c2ccccc2OC12CCNCC2,inhibition,[2],42%
same,Ki,[4],3400 nM
